According to patent US6750248B2, “Methods for preparing an estrogenic preparation and isolated estrogenic compounds from a plant and uses thereof” (National University of Singapore, priority 2001, dated 2004):
“Also recorded” adds a separate entry of the source. Like-named read-outs stand apart in the source and are kept apart here. Blank lines part the entries; values can stand above or below the compound they belong to.

How the values were obtained:
[1] = mice, intra-peritoneal 32 mg/kg/day for 14 days; cited from earlier work
[2] = tested on: mouse heart allograft; details: cited from earlier work
[3] = biological target: T1, human estrogen receptor ER-beta (Homo sapiens, UniProt Q92731); assay: ER-beta MMTV-ERE-LUC luciferase reporter gene assay in transiently co-transfected Hela cells; type: cell-based; details: for ER-alpha versus ER-beta selectivity (in words): compared with ER-alpha
T1 construct: expressed in transfected cells; host or cells: Hela cells, transient co-transfection with lipofectamine
T1 sequence (Q92731 whole entry): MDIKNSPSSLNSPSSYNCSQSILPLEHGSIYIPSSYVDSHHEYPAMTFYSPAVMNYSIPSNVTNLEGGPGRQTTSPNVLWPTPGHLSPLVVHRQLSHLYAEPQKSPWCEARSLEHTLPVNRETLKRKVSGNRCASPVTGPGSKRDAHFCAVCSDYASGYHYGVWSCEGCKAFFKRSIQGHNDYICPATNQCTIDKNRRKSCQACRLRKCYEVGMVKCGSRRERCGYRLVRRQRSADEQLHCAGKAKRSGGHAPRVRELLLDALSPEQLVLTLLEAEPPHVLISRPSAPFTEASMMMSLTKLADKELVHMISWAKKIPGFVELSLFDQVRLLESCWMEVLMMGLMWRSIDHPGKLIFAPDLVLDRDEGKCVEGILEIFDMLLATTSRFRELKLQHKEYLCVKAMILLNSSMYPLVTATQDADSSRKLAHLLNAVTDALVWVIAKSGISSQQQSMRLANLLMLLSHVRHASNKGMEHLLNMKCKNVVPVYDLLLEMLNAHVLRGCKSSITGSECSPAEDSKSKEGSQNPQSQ
Description: (§1) To assay estrogen receptor agonist activity, Hela cells were grown in 24-well microtiter plates and then transiently co-transfected with two plasmids using lipofectamine. The first plasmid comprised DNA encoding human estrogen receptor (either ER-alpha or ER-beta), and the second plasmid comprised an estrogen-driven reporter system comprising: a luciferase reporter gene (LUC) whose transcription is under the control of upstream regulatory elements comprising 4 copies of the vitelogenin estrogen response element (ERE) cloned into the mouse mammary tumor virus (MMTV) promoter (the full name for the reporter system being “MMTV-ERE-LUC”). Cells were exposed to herbal extracts in RPMI 1640 medium, supplemented with 10% charcoal-treated fetal calf serum, 2 mM L-glutamine, 0.1 mM non-essential amino acids and 1 mM sodium pyruvate for 42-48 hours at 37° C. in a 5% carbon dioxide incubator. […] Replicate wells exposed to the solvent in which herbal extracts were dissolved (i.e. ethanol or methanol) were used as negative controls. After the 42-48 hr incubation period, cells were rinsed with phosphate buffered saline(PBS), lysis buffer (Promega Corp) was added, and cell lysates collected for measurement of luciferase activity with a luminometer. […] All data points are in triplicate.

[4] = biological target: T2, human estrogen receptor ER-alpha (Homo sapiens, UniProt P03372); assay: ER-alpha MMTV-ERE-LUC luciferase reporter gene assay in transiently co-transfected Hela cells; type: cell-based
T2 construct: expressed in transfected cells; host or cells: Hela cells, transient co-transfection with lipofectamine
T2 sequence (P03372 1-595): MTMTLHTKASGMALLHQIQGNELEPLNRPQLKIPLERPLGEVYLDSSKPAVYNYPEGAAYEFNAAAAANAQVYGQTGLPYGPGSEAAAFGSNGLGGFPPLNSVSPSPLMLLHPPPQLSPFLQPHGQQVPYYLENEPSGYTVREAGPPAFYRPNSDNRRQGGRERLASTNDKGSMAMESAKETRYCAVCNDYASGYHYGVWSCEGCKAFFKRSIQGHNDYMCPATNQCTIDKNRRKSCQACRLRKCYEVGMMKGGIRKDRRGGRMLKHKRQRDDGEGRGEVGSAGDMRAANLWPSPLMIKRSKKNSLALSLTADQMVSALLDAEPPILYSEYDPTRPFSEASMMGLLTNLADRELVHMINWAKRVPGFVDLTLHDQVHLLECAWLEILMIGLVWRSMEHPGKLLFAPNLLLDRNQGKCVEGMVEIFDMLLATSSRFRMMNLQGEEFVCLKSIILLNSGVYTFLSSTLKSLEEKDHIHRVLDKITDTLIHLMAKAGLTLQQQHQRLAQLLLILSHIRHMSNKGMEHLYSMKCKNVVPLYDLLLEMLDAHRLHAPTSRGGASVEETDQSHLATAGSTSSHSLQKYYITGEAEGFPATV
Description: as §1

[5] = tested on: human estrogen receptor (either ER-alpha or ER-beta); assay: Estrogen receptor bioassay as in Example 1, ER subtype not stated; type: cell-based; details: under the conditions described herein
Description: as §1

[6] = tested on: estrogen receptors; details: cited from earlier work

- ER-beta agonist activity (in words) [3]: can activate both ER-alpha and ER-beta
- Estrogenic activity (fold increased over vehicle), ER-beta ([3]; dose 0.05 μg/ml): 2.598 fold
- Estrogenic activity (fold increased over vehicle), ER-beta ([3]; dose 0.5 μg/ml): 18.763 fold
- Estrogenic activity (fold increased over vehicle), ER-beta ([3]; dose 5 μg/ml): 13.289 fold
- ER-beta agonist activity (in words) ([3]; listed as AF6): strong ER-alpha and ER-beta activity
- ER-alpha agonist activity (in words) [4]: can activate both ER-alpha and ER-beta
- Estrogenic activity (fold increased over vehicle), ER-alpha ([4]; dose 0.05 μg/ml): 4.940 fold
- Estrogenic activity (fold increased over vehicle), ER-alpha ([4]; dose 0.5 μg/ml): 9.089 fold
- Estrogenic activity (fold increased over vehicle), ER-alpha ([4]; dose 5 μg/ml): 11.618 fold
- ER-alpha agonist activity (in words) ([4]; listed as AF6): strong ER-alpha and ER-beta activity
SMILES: CC(C)=CCc1cc(-c2cc(=O)c3c(O)cc(O)cc3o2)ccc1O [Compound I, yinyanghuo D]
- ER-alpha versus ER-beta selectivity (in words) ([3]; listed as AF6): activate both ER-alpha and ER-beta equally; also recorded: estrogen receptor agonist activity on both ER-alpha and ER-beta

- Estrogenic activity (in words) [5]: no detectable estrogenic activity
SMILES: C=C(C)C(O)Cc1cc(-c2cc(=O)c3c(O)cc(O)cc3o2)cc(CC(O)C(=C)C)c1O (stereo not drawn) [Compound II]

The remaining lines, values behind:

SMILES: COc1ccc(-c2oc3c(CC=C(C)C)c(O)cc(O)c3c(=O)c2O[C@@H]2O[C@@H](C)[C@H](O)[C@@H](O)[C@H]2O)cc1 [Baihuoside I]
- Side effects [1]: no side effects
- Mouse heart allograft survival [2]: effective at prolonging mouse heart allograft survival

SMILES: CC(C)=CCc1cc(-c2cc(=O)c3c(O)cc(O)cc3o2)cc2c1OC(C(C)(C)O)C2O (stereo not drawn) [Compound III]
- Concentration with ER-beta activity equivalent to estradiol at 1 nM [3]: 15 ng/mL
- ER-beta agonist activity (in words) [3]: activated ER-beta strongly
- Factor by which ER-beta is activated more strongly than ER-alpha ([3]; at 5 μg/ml): about nine-fold
- ER-alpha versus ER-beta selectivity (in words) [3]: activates ER-beta more strongly than it activates ER-alpha; also recorded: shows specificity for ER-beta
- ER-alpha versus ER-beta selectivity (in words) ([3]; listed as AF1): stronger than that observed for ER-alpha estrogen receptors
- Estrogenic activity (fold increased over vehicle), ER-beta ([3]; dose 0.05 μg/ml): 1.514 fold
- Estrogenic activity (fold increased over vehicle), ER-beta ([3]; dose 0.5 μg/ml): 6.093 fold
- Estrogenic activity (fold increased over vehicle), ER-beta ([3]; dose 5 μg/ml): 23.132 fold
- ER-beta stimulatory activity compared with estradiol (in words) ([3]; dose-dependent): stronger than that observed for estradiol
- ER-alpha activity as % of that of estradiol [4]: 26%
- ER-alpha agonist activity (in words) [4]: very weak ER alpha activity
- Estrogenic activity (fold increased over vehicle), ER-alpha ([4]; dose 0.05 μg/ml): 1.031 fold
- Estrogenic activity (fold increased over vehicle), ER-alpha ([4]; dose 0.5 μg/ml): 2.357 fold
- Estrogenic activity (fold increased over vehicle), ER-alpha ([4]; dose 5 μg/ml): 2.694 fold

SMILES: O=c1cc(-c2ccc(O)c(O)c2)oc2cc(O)cc(O)c12 [Luteolin]
- Relative potency of estrogenic activity compared to genistein [6]: 58%

SMILES: O=c1c(O)c(-c2ccc(O)c(O)c2)oc2cc(O)cc(O)c12 [quercetin]
- Relative potency of estrogenic activity compared to genistein [6]: 10%
